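Values below derive from 48-hour exposures of cells grown in 96-well plates, with endpoints linearly interpolated between the two concentrations bracketing the appropriate inhibition level. TGI is the concentration that stops growth completely.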
Tests used:
Assay in all cases: NCI tumour cell line growth inhibition, 48 h
HOP-92 NSCLC = system: HOP-92 NSCLC
K-562 leukemia = system: K-562 leukemia
SK-MEL-2 melanoma = system: SK-MEL-2 melanoma
HCT-15 colon = system: HCT-15 colon
SN12C renal = system: SN12C renal
CCRF-CEM leukemia = system: CCRF-CEM leukemia
SK-OV-3 ovarian = system: SK-OV-3 ovarian
DLD-1 colon = system: DLD-1 colon
HOP-62 NSCLC = system: HOP-62 NSCLC
A498 renal = system: A498 renal
UACC-62 melanoma = system: UACC-62 melanoma
OVCAR-8 ovarian = system: OVCAR-8 ovarian
SF-539 CNS = system: SF-539 CNS
EKVX NSCLC = system: EKVX NSCLC
NCI/ADR-RES ovarian = system: NCI/ADR-RES ovarian
DMS 114 small cell lung = system: DMS 114 small cell lung
SNB-75 CNS = system: SNB-75 CNS
NCI-H460 lung = system: NCI-H460 lung
RPMI-8226 leukemia = system: RPMI-8226 leukemia
MALME-3M melanoma = system: MALME-3M melanoma
U251 CNS = system: U251 CNS
SF-268 CNS = system: SF-268 CNS
COLO 205 colon = system: COLO 205 colon
SN12K1 renal = system: SN12K1 renal
SW-620 colon = system: SW-620 colon
P388 leukemia = system: P388 leukemia
RXF 393 renal = system: RXF 393 renal
LOX IMVI melanoma = system: LOX IMVI melanoma
OVCAR-4 ovarian = system: OVCAR-4 ovarian
IGROV1 ovarian = system: IGROV1 ovarian
P388/ADR leukemia = system: P388/ADR leukemia
NCI-H23 lung = system: NCI-H23 lung
HT29 colon = system: HT29 colon
SK-MEL-5 melanoma = system: SK-MEL-5 melanoma
A549 NSCLC = system: A549 NSCLC
DMS 273 small cell lung = system: DMS 273 small cell lung
KM12 colon = system: KM12 colon
MCF7 breast = system: MCF7 breast
NCI-H226 lung = system: NCI-H226 lung
SK-MEL-28 melanoma = system: SK-MEL-28 melanoma
NCI-H522 lung = system: NCI-H522 lung
OVCAR-3 ovarian = system: OVCAR-3 ovarian
MOLT-4 leukemia = system: MOLT-4 leukemia
SNB-19 CNS = system: SNB-19 CNS
HL-60(TB) leukemia = system: HL-60(TB) leukemia
SF-295 CNS = system: SF-295 CNS
SNB-78 CNS = system: SNB-78 CNS
HCT-116 colon = system: HCT-116 colon
M19-MEL melanoma = system: M19-MEL melanoma
HCC-2998 colon = system: HCC-2998 colon
KM20L2 colon = system: KM20L2 colon
UACC-257 melanoma = system: UACC-257 melanoma
UO-31 renal = system: UO-31 renal
OVCAR-5 ovarian = system: OVCAR-5 ovarian
RXF-631 renal = system: RXF-631 renal
SR leukemia = system: SR leukemia
TK-10 renal = system: TK-10 renal
786-0 renal = system: 786-0 renal
M14 melanoma = system: M14 melanoma
HOP-18 NSCLC = system: HOP-18 NSCLC
XF 498 CNS = system: XF 498 CNS
LXFL 529 NSCLC = system: LXFL 529 NSCLC
CAKI-1 renal = system: CAKI-1 renal
ACHN renal = system: ACHN renal

CCCCCCCCC1=CCC(CN(C)C)C1=O (configuration not stated)
TGI (HOP-92 NSCLC): 31 µM | TGI (K-562 leukemia): 59 µM | TGI (SK-MEL-2 melanoma): 46.1 µM | TGI (HCT-15 colon): 33.7 µM | TGI (SN12C renal): 32.4 µM | TGI (CCRF-CEM leukemia): > 60.1 µM | TGI (SK-OV-3 ovarian): > 100 µM | TGI (DLD-1 colon): 35 µM | TGI (HOP-62 NSCLC): > 31.6 µM | TGI (A498 renal): > 58.4 µM | TGI (UACC-62 melanoma): 33.2 µM | TGI (OVCAR-8 ovarian): 34.9 µM | TGI (SF-539 CNS): 36.9 µM | TGI (EKVX NSCLC): 48.1 µM | TGI (NCI/ADR-RES ovarian): 41.7 µM | TGI (DMS 114 small cell lung): 34.4 µM | TGI (SNB-75 CNS): 32.1 µM | TGI (NCI-H460 lung): 26.1 µM | TGI (RPMI-8226 leukemia): 4.2 µM | TGI (MALME-3M melanoma): 32.3 µM | TGI (U251 CNS): 32.8 µM | TGI (SF-268 CNS): 34.7 µM | TGI (COLO 205 colon): 33.9 µM | TGI (SN12K1 renal): 32.1 µM | TGI (SW-620 colon): 36.6 µM | TGI (P388 leukemia): 46.5 µM | TGI (RXF 393 renal): 36 µM | TGI (LOX IMVI melanoma): 33.7 µM | TGI (OVCAR-4 ovarian): 50.8 µM | TGI (IGROV1 ovarian): 35.9 µM | TGI (P388/ADR leukemia): 15 µM | TGI (NCI-H23 lung): 39.2 µM | TGI (HT29 colon): 35.4 µM | TGI (SK-MEL-5 melanoma): 41.4 µM | TGI (A549 NSCLC): > 100 µM | TGI (DMS 273 small cell lung): 35.3 µM | TGI (KM12 colon): 38 µM | TGI (MCF7 breast): 13.6 µM | TGI (NCI-H226 lung): > 76.3 µM | TGI (SK-MEL-28 melanoma): 38.2 µM | TGI (NCI-H522 lung): 31.3 µM | TGI (OVCAR-3 ovarian): 34.3 µM | TGI (MOLT-4 leukemia): 48.2 µM | TGI (SNB-19 CNS): > 79 µM | TGI (HL-60(TB) leukemia): 33.8 µM | TGI (SF-295 CNS): > 60.7 µM | TGI (SNB-78 CNS): 46.4 µM | TGI (HCT-116 colon): 36.5 µM | TGI (M19-MEL melanoma): 32.3 µM | TGI (HCC-2998 colon): 27.7 µM | TGI (KM20L2 colon): 47.4 µM | TGI (UACC-257 melanoma): 45.7 µM | TGI (UO-31 renal): 39.2 µM | TGI (OVCAR-5 ovarian): > 72.4 µM

CC(=O)Oc1ccc(O)c2c1CCCC2
TGI (K-562 leukemia): 54.6 µM | TGI (SK-MEL-2 melanoma): > 100 µM | TGI (HCT-15 colon): 18.4 µM | TGI (SN12C renal): > 65.9 µM | TGI (RXF-631 renal): > 100 µM | TGI (CCRF-CEM leukemia): 47.6 µM | TGI (SK-OV-3 ovarian): > 100 µM | TGI (DLD-1 colon): 48.5 µM | TGI (HOP-62 NSCLC): > 100 µM | TGI (A498 renal): > 31.6 µM | TGI (UACC-62 melanoma): > 100 µM | TGI (OVCAR-8 ovarian): 32.9 µM | TGI (SR leukemia): 16.3 µM | TGI (SF-539 CNS): > 100 µM | TGI (EKVX NSCLC): > 100 µM | TGI (TK-10 renal): 49.6 µM | TGI (DMS 114 small cell lung): > 54 µM | TGI (SNB-75 CNS): > 100 µM | TGI (NCI-H460 lung): > 31.6 µM | TGI (RPMI-8226 leukemia): 66.4 µM | TGI (MALME-3M melanoma): > 61.2 µM | TGI (U251 CNS): > 100 µM | TGI (SF-268 CNS): > 100 µM | TGI (COLO 205 colon): 55.6 µM | TGI (SW-620 colon): 39.6 µM | TGI (RXF 393 renal): > 57.5 µM | TGI (LOX IMVI melanoma): 36.3 µM | TGI (786-0 renal): > 100 µM | TGI (OVCAR-4 ovarian): 33.2 µM | TGI (IGROV1 ovarian): > 100 µM | TGI (NCI-H23 lung): > 91.1 µM | TGI (HT29 colon): > 100 µM | TGI (SK-MEL-5 melanoma): > 63.3 µM | TGI (A549 NSCLC): > 100 µM | TGI (DMS 273 small cell lung): > 64.1 µM | TGI (KM12 colon): > 100 µM | TGI (NCI-H226 lung): > 100 µM | TGI (SK-MEL-28 melanoma): > 100 µM | TGI (M14 melanoma): > 68.2 µM | TGI (HOP-18 NSCLC): > 100 µM | TGI (NCI-H522 lung): 18.1 µM | TGI (XF 498 CNS): 30 µM | TGI (OVCAR-3 ovarian): 25.9 µM | TGI (MOLT-4 leukemia): 43.5 µM | TGI (LXFL 529 NSCLC): 31.2 µM | TGI (SNB-19 CNS): > 100 µM | TGI (HL-60(TB) leukemia): 14.1 µM | TGI (SF-295 CNS): > 100 µM | TGI (SNB-78 CNS): 40.2 µM | TGI (HCT-116 colon): 32.9 µM | TGI (M19-MEL melanoma): 18.4 µM | TGI (CAKI-1 renal): > 73.4 µM | TGI (HCC-2998 colon): > 100 µM | TGI (KM20L2 colon): > 100 µM | TGI (UACC-257 melanoma): > 91.1 µM | TGI (ACHN renal): 29.2 µM | TGI (UO-31 renal): > 64.5 µM | TGI (OVCAR-5 ovarian): > 100 µM
